Measurements reported in patent US20250100962A1 (CITY OF HOPE, priority 2023, published 2025).

Key:
[1] = test system: U2OS cells containing Per2::dLuc luciferase reporter; assay: Real-time bioluminescence monitoring of Per2::Luciferase reporter in U2OS cells (LumiCycle); type: cell-based; settings: for LumiCycle Result: Clock activity (overall) / LumiCycle Result: Clock activity, Amplitude / LumiCycle Result: Clock activity, Period: U2OS Per2::dLuc; for LumiCycle Result: Clock activity (overall): CHX analogs screened; for LumiCycle Result: Clock activity, Amplitude / LumiCycle Result: Clock activity, Period: Table 1; for Modulatory Property: clock-modulatory classification
Experimental: U2OS cells or mouse fibroblasts (MF) containing a Per2-luciferase reporter (Yoo et al., 2004) were seeded at 4×10^5 concentration on 24 well plates and treated at 90% confluence with 1 ml 1×Fresh explant medium with desired compounds and controls. The seeding density was decided after trying several densities and choosing the one that after 24 h lead to 90% confluence. 1× Fresh explant medium was produced using 50% 2×DMEM buffer stock [DMEM powder (Gibco—Thermo Fisher CN: 12800-017), Sterile MilliQ water, pH7 1 M HEPES (Gibco—Thermo Fisher CN:15630080) and 7.5% Sodium Bicarbonate (Gibco—Thermo Fisher CN: 25080094)], 10% FBS (Cytiva), 37.9% Sterile MiliQ water, 1% PSG 100× (Gibco—Thermo Fisher CN: 10378016), 0.1% Sodium Hydroxixe (NaOH) 100 mM (Fishel Chemical CN: S318-500), 1% XenoLight D-Luciferin—Monopotassium Salt Bioluminiscent Substrate 100 mM (PerkinElmer CN: 122799). Treated cells were introduced to the LumiCycle96 (ActiMetrics) were they were cultured and Per2-luciferafe reporter luminescence was measured for 6 days. Raw and subtracted results for 5 days were exported and data was calculated as luminescence counts per second.

[2] = test system: C2C12 myoblasts; assay: Myogenic differentiation of C2C12 myoblasts; type: cell-based, mouse; settings: Table 1 summary of CHX analogs
Experimental: Pictures were taken every day to monitor morphological progression, and proteins and RNA samples were collected on days indicated.
C2C12, C2C12 Bmal1 KD and C2C12 Scrambled control (SC) myoblasts were seeded at Day −1 at 2×105 concentration on 12 wells plates and maintained in 10% FBS until 80% confluency and treated with indicated compounds and controls in 2% FBS DMEM media to induce differentiation on Day 0. On days 3, 5 and 7 cells were fixed with 4% paraformaldehyde (from 37% Formaldehyde Baker Analyzed) and kept at 4° C. in PBS. Cells were permeabilized with Permeabilization solution of 0.5% Triton X-100 (Fisher Bioreagents CN: 9002-93-1) in PBS and blocked with Blocking solution of 1% BSA (Fisher Bioreagents CN:9048-46-8) in PBS. Primary antibodies were diluted in Washing solution of 0.01% Triton X-100 (Fisher Bioreagents CN: 9002-93-1) in PBS and left overnight at 4° C. Cells were then incubated with secondary antibodies in Washing solution at room temperature for 1 h. 1 μg/ml 4′,6′-diamidine-2′-phenylindole dihydrochloride (DAPI) was used to label for nuclei. […] To quantify the proliferation of myoblast, when needed, cells were treated with 1 μg/ml of EdU for 3 h before fixation. Detection of EdU was performed with Click-iT EdU Alexa Fluor 488 Imaging Kit before applying the immunofluorescence staining as described above.

[3] = test system: mice; settings: chow and high-fat diet; Xiong et al., 2023; cited from earlier work
[4] = test system: CLOCK protein; assay: CLOCK protein palmitoylation (acyl-biotin exchange) and stability; type: cell-based
Excerpt: FIGS. 11A-11C. Analysis of CLOCK protein S-palmitoylation. FIGS. 11A-11B: Identification of CLOCK palmitoylation by acyl-biotin exchange method using hydroxylamine (HAM). […] FIG. 11C: Structural modeling of the palmitoylation pocket and the docking pose within the hydrophobic pocket that lies between the interface of CLOCK interaction with Bmal1. FIGS. 12A-12C. Palmitoylation modulates CLOCK protein stability and interaction with Bmal1. […] FIG. 12B: CLOCK palmitoylation cysteine mutations inhibit its interaction with heterodimer partner Bmal1 and Bmal1 stability by single amino acid mutations. FIG. 12C: CLOCK palmitoylation site mutations attenuated CLOCK-mediated transcription activation.

## N=C(NCCCCCCNC(N)=O)NC(=N)Nc1ccc(Cl)cc1 [CM008]
[1]
  LumiCycle Result: Clock activity (overall): Cellular toxicity

## N=C(NCCCCCCNC(=N)Nc1ccc(Cl)cc1)Nc1ccc(Cl)cc1 [CM004]
[2]
  Myogenesis: Enhanced
[1]
  LumiCycle Result: Clock activity, Amplitude: Amplitude: Increased
  LumiCycle Result: Clock activity, Period: Period: Shortening
  Modulatory Property: Activator

## CCCCCCCNC(=N)NC(=N)Nc1ccc(Cl)cc1 [CM001]
[2]
  Myogenesis: No effect
[1]
  LumiCycle Result: Clock activity, Amplitude: Amplitude: No effect

## COc1ccc(-c2cc(=O)c3c(OC)c(OC)c(OC)c(OC)c3o2)cc1OC [Nobiletin]
[3]
  anti-obesity effect: strong anti-obesity effect

## N=C(NCCCCCCNC(=N)Nc1ccc(Cl)cc1)NC(=N)Nc1ccc(Cl)cc1 [CM003]
[1]
  LumiCycle Result: Clock activity (overall): No effect

## CCCCCCCNC(=N)Nc1nc2ccc(Cl)cc2[nH]1 [CM007]
[1]
  LumiCycle Result: Clock activity (overall): No effect

## N=C(NCCCCCCCCCCCCCCNC(=N)NC(=N)Nc1ccc(Cl)cc1)NC(=N)Nc1ccc(Cl)cc1 [CM005]
[2]
  Myogenesis: Slight inhition
[1]
  LumiCycle Result: Clock activity, Amplitude: Amplitude: Increased at low
  LumiCycle Result: Clock activity, Period: Period: Lengthening
  Modulatory Property: Inhibitor

## CCCCCCCCCCCCCCC(Br)C(=O)O (centres unmarked) [2-BrP]
[4]
  CLOCK protein stability: reduces CLOCK protein stability
[4]; Flag-tagged CLOCK in HEK 293T cells
  CLOCK palmitoylation: loss of CLOCK palmitoylation

## CCCCCCCCCCC[C@@H](C[C@@H]1OC(=O)[C@H]1CCCCCC)OC(=O)[C@H](CC(C)C)NC=O [Orlistat]
[4]
  CLOCK protein stability: reduces CLOCK protein stability
